In paper PMC5078040 (Oncotarget, 2016):

Key:
[1] = target: T1, ABL1(E255K)-phosphorylated (Homo sapiens, UniProt P00519, E255K); test: KinomeScan; format: binding; conditions: 1uM
T1 construct: purchased DiscoveRx KINOMEscan

AMPK-alpha1 = target: T2, AMPK-alpha1 (Homo sapiens, UniProt Q13131); test: KinomeScan; format: binding; conditions: 1uM
T2 construct: purchased DiscoveRx KINOMEscan

BLK = target: T3, BLK (Homo sapiens, UniProt P51451); test: KinomeScan; format: binding; conditions: 1uM
T3 construct: purchased DiscoveRx KINOMEscan

BRK = target: T4, BRK (Homo sapiens, UniProt Q13882); test: KinomeScan; format: binding; conditions: 1uM
T4 construct: purchased DiscoveRx KINOMEscan

BUB1 = target: T5, BUB1 (Homo sapiens, UniProt O43683); test: KinomeScan; format: binding; conditions: 1uM
T5 construct: purchased DiscoveRx KINOMEscan

CDC2L1 = target: T6, CDC2L1 (Homo sapiens, UniProt P21127); test: KinomeScan; format: binding; conditions: 1uM
T6 construct: purchased DiscoveRx KINOMEscan

DAPK2 = target: T7, DAPK2 (Homo sapiens, UniProt Q9UIK4); test: KinomeScan; format: binding; conditions: 1uM
T7 construct: purchased DiscoveRx KINOMEscan

DLK = target: T8, DLK (Homo sapiens, UniProt Q12852); test: KinomeScan; format: binding; conditions: 1uM
T8 construct: purchased DiscoveRx KINOMEscan
T8 sequence (Q12852 whole entry): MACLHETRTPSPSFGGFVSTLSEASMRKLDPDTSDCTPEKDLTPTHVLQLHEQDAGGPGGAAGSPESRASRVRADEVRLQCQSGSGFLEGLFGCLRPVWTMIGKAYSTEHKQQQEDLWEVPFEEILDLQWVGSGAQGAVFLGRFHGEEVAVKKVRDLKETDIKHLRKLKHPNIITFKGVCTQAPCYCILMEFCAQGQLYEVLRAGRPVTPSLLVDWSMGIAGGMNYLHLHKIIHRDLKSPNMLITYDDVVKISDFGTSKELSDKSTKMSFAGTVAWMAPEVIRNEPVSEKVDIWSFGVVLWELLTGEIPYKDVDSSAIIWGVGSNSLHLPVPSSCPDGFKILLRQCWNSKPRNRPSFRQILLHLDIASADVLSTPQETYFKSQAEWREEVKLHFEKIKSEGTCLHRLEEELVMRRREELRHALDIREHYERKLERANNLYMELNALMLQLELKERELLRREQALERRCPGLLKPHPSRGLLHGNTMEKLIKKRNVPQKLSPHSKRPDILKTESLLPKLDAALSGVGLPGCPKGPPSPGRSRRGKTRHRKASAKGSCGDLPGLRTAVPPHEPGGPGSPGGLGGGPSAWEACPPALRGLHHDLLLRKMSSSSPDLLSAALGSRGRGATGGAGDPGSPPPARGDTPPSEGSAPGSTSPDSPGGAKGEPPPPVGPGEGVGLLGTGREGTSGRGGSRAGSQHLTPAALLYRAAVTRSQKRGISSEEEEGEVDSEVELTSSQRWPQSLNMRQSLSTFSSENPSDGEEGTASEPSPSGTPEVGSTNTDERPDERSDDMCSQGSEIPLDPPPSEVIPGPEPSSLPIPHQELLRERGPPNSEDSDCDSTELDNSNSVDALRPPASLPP

EGFR = target: T9, EGFR (Homo sapiens, UniProt P00533); test: KinomeScan; format: binding; conditions: 1uM
T9 construct: purchased DiscoveRx KINOMEscan

[2] = target: T10, EGFR(L747-S752del, P753S) (Homo sapiens, UniProt P00533, DEL747-752/P753S); test: KinomeScan; format: binding; conditions: 1uM
T10 construct: purchased DiscoveRx KINOMEscan

EGFR(L861Q) = target: T11, EGFR(L861Q) (Homo sapiens, UniProt P00533, L861Q); test: KinomeScan; format: binding; conditions: 1uM
T11 construct: purchased DiscoveRx KINOMEscan

FGFR1 = target: T12, FGFR1 (Homo sapiens, UniProt P11362); test: KinomeScan; format: binding; conditions: 1uM
T12 construct: purchased DiscoveRx KINOMEscan
T12 sequence (P11362 22-822): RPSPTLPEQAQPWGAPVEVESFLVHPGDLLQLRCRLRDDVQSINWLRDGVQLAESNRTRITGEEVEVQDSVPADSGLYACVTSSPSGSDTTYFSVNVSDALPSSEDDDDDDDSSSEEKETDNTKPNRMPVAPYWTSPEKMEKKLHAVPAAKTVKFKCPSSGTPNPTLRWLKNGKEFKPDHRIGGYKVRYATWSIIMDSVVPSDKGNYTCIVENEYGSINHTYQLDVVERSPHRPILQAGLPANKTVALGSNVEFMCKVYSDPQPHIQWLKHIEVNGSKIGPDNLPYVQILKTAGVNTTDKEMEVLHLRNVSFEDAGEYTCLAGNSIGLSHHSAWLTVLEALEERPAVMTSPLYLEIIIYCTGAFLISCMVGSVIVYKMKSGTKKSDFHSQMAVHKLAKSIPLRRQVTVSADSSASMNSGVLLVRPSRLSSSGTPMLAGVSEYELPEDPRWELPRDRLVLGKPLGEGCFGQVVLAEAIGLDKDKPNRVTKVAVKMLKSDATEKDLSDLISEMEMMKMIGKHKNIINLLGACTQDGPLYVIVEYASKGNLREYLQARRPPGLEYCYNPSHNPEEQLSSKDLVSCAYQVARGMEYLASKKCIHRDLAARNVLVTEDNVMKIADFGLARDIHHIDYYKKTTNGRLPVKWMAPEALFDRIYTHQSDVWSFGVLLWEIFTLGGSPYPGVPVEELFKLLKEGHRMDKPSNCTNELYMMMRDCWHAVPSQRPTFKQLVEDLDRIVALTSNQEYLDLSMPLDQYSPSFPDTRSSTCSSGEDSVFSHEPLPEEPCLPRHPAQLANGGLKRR

FLT3 = target: T13, FLT3 (Homo sapiens, UniProt P36888); test: KinomeScan; format: binding; conditions: 1uM
T13 construct: purchased DiscoveRx KINOMEscan

GSK3B = target: T14, GSK3B (Homo sapiens, UniProt P49841); test: KinomeScan; format: binding; conditions: 1uM
T14 construct: purchased DiscoveRx KINOMEscan

IGF1R = target: T15, IGF1R (Homo sapiens, UniProt P08069); test: KinomeScan; format: binding; conditions: 1uM
T15 construct: purchased DiscoveRx KINOMEscan

KIT(A829P) = target: T16, KIT(A829P) (Homo sapiens, UniProt P10721, A829P); test: KinomeScan; format: binding; conditions: 1uM
T16 construct: purchased DiscoveRx KINOMEscan

MARK1 = target: T17, MARK1 (Homo sapiens, UniProt Q9P0L2); test: KinomeScan; format: binding; conditions: 1uM
T17 construct: purchased DiscoveRx KINOMEscan
T17 sequence (Q9P0L2 whole entry): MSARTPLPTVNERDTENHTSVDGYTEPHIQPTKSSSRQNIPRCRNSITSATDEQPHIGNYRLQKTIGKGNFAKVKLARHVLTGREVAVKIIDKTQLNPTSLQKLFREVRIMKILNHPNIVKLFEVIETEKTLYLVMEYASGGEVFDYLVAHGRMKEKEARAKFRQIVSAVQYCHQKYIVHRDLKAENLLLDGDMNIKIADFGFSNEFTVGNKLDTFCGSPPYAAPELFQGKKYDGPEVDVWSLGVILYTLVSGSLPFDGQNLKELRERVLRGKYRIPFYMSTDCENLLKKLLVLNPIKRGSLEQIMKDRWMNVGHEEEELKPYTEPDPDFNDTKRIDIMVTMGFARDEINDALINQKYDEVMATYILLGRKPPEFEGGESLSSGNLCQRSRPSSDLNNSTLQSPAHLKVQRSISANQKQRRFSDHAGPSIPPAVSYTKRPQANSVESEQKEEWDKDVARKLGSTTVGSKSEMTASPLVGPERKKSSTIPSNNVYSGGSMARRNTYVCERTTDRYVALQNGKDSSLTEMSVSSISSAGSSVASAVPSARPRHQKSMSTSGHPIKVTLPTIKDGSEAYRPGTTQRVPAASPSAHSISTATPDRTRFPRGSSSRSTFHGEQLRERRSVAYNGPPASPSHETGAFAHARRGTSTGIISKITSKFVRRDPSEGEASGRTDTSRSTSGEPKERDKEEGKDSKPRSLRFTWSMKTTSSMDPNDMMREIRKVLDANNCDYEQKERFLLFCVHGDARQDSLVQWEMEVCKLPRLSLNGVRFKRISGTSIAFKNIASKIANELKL

MET(Y1235D) = target: T18, MET(Y1235D) (Homo sapiens, UniProt P08581, Y1235D); test: KinomeScan; format: binding; conditions: 1uM
T18 construct: purchased DiscoveRx KINOMEscan

MRCKA = target: T19, MRCKA (Homo sapiens, UniProt Q5VT25); test: KinomeScan; format: binding; conditions: 1uM
T19 construct: purchased DiscoveRx KINOMEscan

MST4 = target: T20, MST4 (Homo sapiens, UniProt Q9P289); test: KinomeScan; format: binding; conditions: 1uM
T20 construct: purchased DiscoveRx KINOMEscan

MTOR = target: T21, MTOR (Homo sapiens, UniProt P42345); test: KinomeScan; format: binding; conditions: 1uM
T21 construct: purchased DiscoveRx KINOMEscan

MYLK = target: T22, MYLK (Homo sapiens, UniProt Q15746); test: KinomeScan; format: binding; conditions: 1uM
T22 construct: purchased DiscoveRx KINOMEscan

NEK1 = target: T23, NEK1 (Homo sapiens, UniProt Q96PY6); test: KinomeScan; format: binding; conditions: 1uM
T23 construct: purchased DiscoveRx KINOMEscan

NEK10 = target: T24, NEK10 (Homo sapiens, UniProt Q6ZWH5); test: KinomeScan; format: binding; conditions: 1uM
T24 construct: purchased DiscoveRx KINOMEscan

NEK11 = target: T25, NEK11 (Homo sapiens, UniProt Q8NG66); test: KinomeScan; format: binding; conditions: 1uM
T25 construct: purchased DiscoveRx KINOMEscan
T25 sequence (Q8NG66 whole entry): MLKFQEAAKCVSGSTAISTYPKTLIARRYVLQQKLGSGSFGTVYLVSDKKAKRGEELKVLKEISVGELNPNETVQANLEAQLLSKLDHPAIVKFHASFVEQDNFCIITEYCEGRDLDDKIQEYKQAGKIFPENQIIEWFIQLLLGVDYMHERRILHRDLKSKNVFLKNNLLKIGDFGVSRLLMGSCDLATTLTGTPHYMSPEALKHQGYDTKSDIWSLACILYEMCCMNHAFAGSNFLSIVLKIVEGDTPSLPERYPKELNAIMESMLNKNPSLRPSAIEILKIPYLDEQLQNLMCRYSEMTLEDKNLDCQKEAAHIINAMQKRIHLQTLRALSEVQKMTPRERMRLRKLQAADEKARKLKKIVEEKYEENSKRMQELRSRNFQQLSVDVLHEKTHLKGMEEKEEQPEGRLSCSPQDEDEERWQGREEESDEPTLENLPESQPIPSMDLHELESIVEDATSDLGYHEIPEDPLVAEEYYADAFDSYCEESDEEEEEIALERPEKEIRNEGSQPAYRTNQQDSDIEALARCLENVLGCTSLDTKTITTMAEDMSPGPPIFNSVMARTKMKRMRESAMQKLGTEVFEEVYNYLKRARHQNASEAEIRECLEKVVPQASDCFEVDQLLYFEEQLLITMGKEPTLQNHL

NEK6 = target: T26, NEK6 (Homo sapiens, UniProt Q9HC98); test: KinomeScan; format: binding; conditions: 1uM
T26 construct: purchased DiscoveRx KINOMEscan

NIM1 = target: T27, NIM1 (Homo sapiens, UniProt Q8IY84); test: KinomeScan; format: binding; conditions: 1uM
T27 construct: purchased DiscoveRx KINOMEscan

PIK3CA(M1043I) = target: T28, PIK3CA(M1043I) (Homo sapiens, UniProt P42336, M1043I); test: KinomeScan; format: binding; conditions: 1uM
T28 construct: purchased DiscoveRx KINOMEscan

PIK4CB = target: T29, PIK4CB (Homo sapiens, UniProt Q9UBF8); test: KinomeScan; format: binding; conditions: 1uM
T29 construct: purchased DiscoveRx KINOMEscan

PKNB(M.tuberculosis) = target: T30, PKNB(M.tuberculosis) (Mycobacterium tuberculosis, UniProt P9WI81); test: KinomeScan; format: binding; conditions: 1uM
T30 construct: purchased DiscoveRx KINOMEscan

PRKG2 = target: T31, PRKG2 (Homo sapiens, UniProt Q13237); test: KinomeScan; format: binding; conditions: 1uM
T31 construct: purchased DiscoveRx KINOMEscan

QSK = target: T32, QSK (Homo sapiens, UniProt Q9Y2K2); test: KinomeScan; format: binding; conditions: 1uM
T32 construct: purchased DiscoveRx KINOMEscan

RET(V804M) = target: T33, RET(V804M) (Homo sapiens, UniProt P07949, V804M); test: KinomeScan; format: binding; conditions: 1uM
T33 construct: purchased DiscoveRx KINOMEscan

RIOK2 = target: T34, RIOK2 (Homo sapiens, UniProt Q9BVS4); test: KinomeScan; format: binding; conditions: 1uM
T34 construct: purchased DiscoveRx KINOMEscan

[3] = target: RPS6KA4(Kin.Dom.2-C-terminal) (Homo sapiens, UniProt O75676); test: KinomeScan; format: binding; conditions: 1uM
SRPK2 = target: T35, SRPK2 (Homo sapiens, UniProt P78362); test: KinomeScan; format: binding; conditions: 1uM
T35 construct: purchased DiscoveRx KINOMEscan
T35 sequence (P78362 whole entry): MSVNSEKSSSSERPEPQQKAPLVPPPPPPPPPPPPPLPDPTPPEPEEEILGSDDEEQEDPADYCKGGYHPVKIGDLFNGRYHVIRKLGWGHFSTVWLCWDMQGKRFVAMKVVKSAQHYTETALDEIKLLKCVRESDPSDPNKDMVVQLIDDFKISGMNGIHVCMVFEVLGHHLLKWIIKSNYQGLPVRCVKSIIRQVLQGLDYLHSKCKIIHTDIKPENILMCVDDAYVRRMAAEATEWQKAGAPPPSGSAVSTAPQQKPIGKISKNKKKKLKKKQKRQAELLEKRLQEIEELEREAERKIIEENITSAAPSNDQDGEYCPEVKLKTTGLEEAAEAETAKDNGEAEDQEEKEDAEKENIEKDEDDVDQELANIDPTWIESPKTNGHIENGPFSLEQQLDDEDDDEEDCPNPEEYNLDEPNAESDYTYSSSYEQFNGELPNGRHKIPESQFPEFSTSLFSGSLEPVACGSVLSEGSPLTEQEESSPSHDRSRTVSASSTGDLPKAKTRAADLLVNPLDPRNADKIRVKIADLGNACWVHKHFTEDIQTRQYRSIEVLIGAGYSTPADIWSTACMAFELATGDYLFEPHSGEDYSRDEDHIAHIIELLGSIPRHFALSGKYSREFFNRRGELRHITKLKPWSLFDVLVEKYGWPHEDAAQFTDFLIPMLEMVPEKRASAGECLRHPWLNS

TIE1 = target: T36, TIE1 (Homo sapiens, UniProt P35590); test: KinomeScan; format: binding; conditions: 1uM
T36 construct: purchased DiscoveRx KINOMEscan

TLK2 = target: T37, TLK2 (Homo sapiens, UniProt Q86UE8); test: KinomeScan; format: binding; conditions: 1uM
T37 construct: purchased DiscoveRx KINOMEscan

TNK2 = target: T38, TNK2 (Homo sapiens, UniProt Q07912); test: KinomeScan; format: binding; conditions: 1uM
T38 construct: purchased DiscoveRx KINOMEscan
T38 sequence (Q07912 whole entry): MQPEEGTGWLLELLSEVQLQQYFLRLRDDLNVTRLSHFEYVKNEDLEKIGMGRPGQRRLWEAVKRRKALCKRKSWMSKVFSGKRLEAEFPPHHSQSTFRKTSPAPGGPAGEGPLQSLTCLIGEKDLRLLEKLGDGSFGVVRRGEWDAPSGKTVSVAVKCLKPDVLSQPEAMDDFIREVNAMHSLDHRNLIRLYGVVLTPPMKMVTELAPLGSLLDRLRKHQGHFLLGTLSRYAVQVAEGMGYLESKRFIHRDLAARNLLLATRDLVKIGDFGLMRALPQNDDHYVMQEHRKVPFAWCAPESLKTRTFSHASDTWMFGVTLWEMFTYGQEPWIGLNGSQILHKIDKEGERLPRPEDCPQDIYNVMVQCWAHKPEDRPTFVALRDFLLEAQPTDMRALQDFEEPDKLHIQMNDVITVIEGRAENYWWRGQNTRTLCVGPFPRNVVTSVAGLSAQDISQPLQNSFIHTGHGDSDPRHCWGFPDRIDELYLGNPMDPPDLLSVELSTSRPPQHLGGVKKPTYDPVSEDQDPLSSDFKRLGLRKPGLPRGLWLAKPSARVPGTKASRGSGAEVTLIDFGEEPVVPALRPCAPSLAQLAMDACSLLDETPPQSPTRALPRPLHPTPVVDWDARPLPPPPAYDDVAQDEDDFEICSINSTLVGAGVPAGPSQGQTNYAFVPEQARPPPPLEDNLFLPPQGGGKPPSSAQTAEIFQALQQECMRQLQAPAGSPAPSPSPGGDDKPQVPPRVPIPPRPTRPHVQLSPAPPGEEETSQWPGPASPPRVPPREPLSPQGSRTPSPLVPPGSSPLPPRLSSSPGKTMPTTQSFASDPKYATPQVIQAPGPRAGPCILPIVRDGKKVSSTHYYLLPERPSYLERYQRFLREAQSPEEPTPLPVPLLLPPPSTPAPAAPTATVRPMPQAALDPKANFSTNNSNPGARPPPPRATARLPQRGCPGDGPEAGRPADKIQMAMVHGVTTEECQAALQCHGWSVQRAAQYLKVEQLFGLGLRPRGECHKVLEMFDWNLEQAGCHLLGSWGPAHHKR

ULK1 = target: T39, ULK1 (Homo sapiens, UniProt O75385); test: KinomeScan; format: binding; conditions: 1uM
T39 construct: purchased DiscoveRx KINOMEscan

PI3Kα [4] = target: T40, PI3Kα (Mus musculus, UniProt P42337); test: PI3Ks isoform in cell EC50 assay (AKT phosphorylation, Western Blotting); format: cell-based; conditions: NIH-3T3, 20ng/ml PDGF-BB, read-out: cellular EC50 PI3K Alpha
T40 construct: endogenous in cells; host or cells: NIH-3T3

PI3Kα [5] = target: PI3Kα (Homo sapiens, UniProt P42336); test: biochemical
Procedure: The reaction in each tube was started immediately by adding ATP and kept going for an hour under 37°C. After the tube cooled for 5 minutes at room temperature, 5 μL solvent reactions were carried out in a 384-well plate. Then 5 μL of ADP-Glo™ reagent was added into each well to stop the reaction and consume the remaining ADP within 40 minutes. At the end, 10 μL of kinase detection reagent was added into the well and incubated for 30 minutes to produce a luminescence signal. Luminescence signal was measured with an automated plate reader (Perkin-Elmer Envision) and each measurement was performed in triplicate.

`Cc1nc(NC(=O)[C@@H](N)C(C)C)sc1-c1cnc(Cl)c(NS(=O)(=O)c2ccccc2)c1` [PI3KD-IN-015] was tested, and the “KinomeScan ABL1(E255K)-phosphorylated” value [1] was 77, the “KinomeScan AMPK-alpha1” value (AMPK-alpha1) was 100 and the “KinomeScan BLK” value (BLK) was 97. The “KinomeScan BRK” value (BRK) was 92, the “KinomeScan BUB1” value (BUB1) was 100 and the “KinomeScan CDC2L1” value (CDC2L1) was 100. The “KinomeScan DAPK2” value (DAPK2) was 97, the “KinomeScan DLK” value (DLK) was 99 and the “KinomeScan EGFR” value (EGFR) was 100. For the same compound, the “KinomeScan EGFR(L747-S752del, P753S)” value [2] was 100, the “KinomeScan EGFR(L861Q)” value (EGFR(L861Q)) was 95 and the “KinomeScan FGFR1” value (FGFR1) was 100. For the same compound, the “KinomeScan FLT3” value (FLT3) was 100, the “KinomeScan GSK3B” value (GSK3B) was 97 and the “KinomeScan IGF1R” value (IGF1R) was 100. For the same compound, the “KinomeScan KIT(A829P)” value (KIT(A829P)) was 96, the “KinomeScan MARK1” value (MARK1) was 100 and the “KinomeScan MET(Y1235D)” value (MET(Y1235D)) was 100. For the same compound, the “KinomeScan MRCKA” value (MRCKA) was 94, the “KinomeScan MST4” value (MST4) was 86 and the “KinomeScan MTOR” value (MTOR) was 28. The “KinomeScan MYLK” value (MYLK) was 94, the “KinomeScan NEK1” value (NEK1) was 100 and the “KinomeScan NEK10” value (NEK10) was 83. The “KinomeScan NEK11” value (NEK11) was 86, the “KinomeScan NEK6” value (NEK6) was 100 and the “KinomeScan NIM1” value (NIM1) was 100. The “KinomeScan PIK3CA(M1043I)” value (PIK3CA(M1043I)) was 0, the “KinomeScan PIK4CB” value (PIK4CB) was 0.8 and the “KinomeScan PKNB(M.tuberculosis)” value (PKNB(M.tuberculosis)) was 79. The “KinomeScan PRKG2” value (PRKG2) was 100, the “KinomeScan QSK” value (QSK) was 94 and the “KinomeScan RET(V804M)” value (RET(V804M)) was 100. For the same compound, the “KinomeScan RIOK2” value (RIOK2) was 72, the “KinomeScan RPS6KA4(Kin.Dom.2-C-terminal)” value [3] was 83 and the “KinomeScan SRPK2” value (SRPK2) was 100. The “KinomeScan TIE1” value (TIE1) was 94, the “KinomeScan TLK2” value (TLK2) was 100 and the “KinomeScan TNK2” value (TNK2) was 100. For the same compound, the “KinomeScan ULK1” value (ULK1) was 74, the EC50 (PI3Kα [4]) was greater than 3000 nM and the IC50 (PI3Kα [5]) was 60 nM.
